Results on one substance are retold here after patent publication US9173923B2, “Modulating innate immune cell activity by lunasin and selected cytokines” (Indiana University Research & Technology Corporation, priority 2011, dated 2015).

Data set [1] deals with NK cells isolated from lungs. As to the kind of experiment: Ifng gene expression in lung NK cells of mice gavaged with lunasin. The class given is in vivo, Balb/c mice. The note with it: 4 mg lunasin by gavage for 3 consecutive days. The procedure: FIG 24 Gene expression of Ifng from mice treated with lunasin. Balb/c mice were gavaged with […] of water only (H2O) or 4 mg of lunasin in […] water (Lunasin) for 3 consecutive days. One day after the last gavage. mice were sacrificed to collect the lungs. NK cells were isolated from lungs of each mouse using positive selection with DX5 magnetic beads (Miltenyi Biotec) followed by RNA extraction, cDNA synthesis and real time qPCR using Taqman assay primers (ABI). Gene expression for IFNg (Ifng) from lungs is presented as mean±SD from 2 mice in each group.
Balb/c mice were gavaged with 200 μl of water only (H2O) or 4 mg of lunasin in 200 μl water (Lunasin) for 3 consecutive days. One day after the last gavage, mice were sacrificed to collect the lungs and spleens. NK cells were isolated from each lung and spleen using positive selection with DX5 magnetic beads (Miltenyi Biotec) followed by RNA extraction, cDNA synthesis and real tune qPCR using Taqman assay primers (ABE). Gene expression for Ifng from lungs (upper panel) and spleens (lower pannel) is presented as mean±SD from 2 mice in each group.

For data set [2] the following is noted: cited from earlier work.
The subject of a further data set is human primary NK cells. As to the kind of experiment: Gene expression by primary NK cells (real time qPCR, Taqman Assay). It is filed as cell-based. From the text:
FIG. 3 Synergistic effects of lunasin and cytokines on gene expression by human primary NK cells. […] One day following the stimulation, the cell pellets were resuspended in Trizol Reagents for total RNA extraction. The first-strand cDNA was synthesized followed by real time qPCR using Taqman Assay with primers for IFNγ(IFNG), granzyme B (GZMB), granulysin (GNLY), chemokine (C-C motif) ligand 3 or CCL3 (CCL3), CCL4 (CCL4). Granulocyte-macrophage colony-stimulating factor or GM-CSF (CSF2) TGFβ (TGFB) and TGFβ receptor (TGFBR2) in ABI 7300 (Applied Biosystems by Life Technologies, Carlsbad CA) Data are presented as mean±SD from 2 duplicates. Results shown are representative over 5 different normal controls. […]
One day following the stimulation, the cell pellets were resuspended in Trizol Reagents for total RNA extraction. The first-strand cDNA was synthesized followed by real time qPCR using Taqman Assay with primers for IFNγ (IFNG), granzyme B (GZMB), granulysin (GNLY), chemokine (C-C motif) ligand 3 or CCL3 (CCL3), CCL4 (CCL4), Granulocyte-macrophage colony-stimulating factor or GM-CSF (CSF2), TGFβ (TGFB) and TGFβ receptor (TGFBR2) in ABI 7300 (Applied Biosystems by Life Technologies, Carlsbad, Calif.). Data are presented as mean±SD from duplicates. Results shown are representative over 5 different normal controls.
Following 1, 2, and 3 days of stimulation, the cell pellets were lysed in Trizol Reagents for total RNA extraction. The first-strand cDNA was synthesized followed by real time qPCR using Taqman Assay with primer for TGFB1 and TGFBR2 in ABI 7300. Results are presented as mean±SD from duplicates. […]
Freshly isolated human NK cells from peripheral blood mononuclear cells (PBMCs) of normal control using positive selection with CD56 magnetic beads (Miltenyi Biotec, Auburn, Calif.) were stimulated with medium only (−), IL-12 (10 ng/ml) or IL-12 (10 ng/ml)+lunasin (5 μM) for 1 day. The cell pellets were lysed in Trizol Reagents for total RNA extraction. The first-strand cDNA was synthesized followed by real time qPCR using Taqman Assay with primer for inhibitory receptors KIR3DL1 (upper panel) and KIR3DL2 (lower panel) in ABI 7300.
On the technique in general: Real-time PCR tracks product formation cycle by cycle.

As for lunasin, in data set [1], the “gene expression of Ifng in the lung” value was “increased gene expression of Ifng”. Moreover, the “distribution of gavaged lunasin” value in data set [2] (gavage) was “can be found in the lung and blood”. In data set [2] (oral), the “lunasin levels in the blood after oral consumption” value is recorded as “Significant levels of lunasin could be detected in the blood” and the “survival of digestion in the gastrointestinal tract” value is given as “survives digestion in the gastrointestinal tract”. In the data set on human primary NK cells (1 day), the CCL3 gene expression result is “sufficient to up-regulate”, the CCL4 gene expression entry is listed as “sufficient to up-regulate” and the “CSF2 (GM-CSF) gene expression” value was “sufficient to up-regulate”. Besides, the GMT gene expression result in the data set with human primary NK cells (1 day, lunasin alone) is on record as “no effects”. Also, the IFNG gene expression entry with human primary NK cells (human cells, qPCR) is recorded as “moderate effects”.
